Measurements published in patent US20250171495A1, “MUTLI-TARGETED SERINE PROTEASE INHIBITORS FOR TREATMENT OF CANCER AND VIRAL INFECTION” (Washington University, priority 2023, published 2025).

Columns and labels:
Format in all cases: biochemical
TMPRSS2 = TMPRSS2 (Homo sapiens, UniProt O15393); experiment: PS-SCL / HyCoSuL substrate specificity screening, TMPRSS2; settings: for P2 Position Substrate Activity for TMPRSS2 (percent substrate cleavage/proteolysis): residue fixed at P2 position of substrate library; for P3 Position Substrate Activity for TMPRSS2 (percent substrate cleavage/proteolysis) / P3 Position Various Amino Acids Substrate Activity, TMPRSS2 (percent substrate cleavage/proteolysis): residue fixed at P3 position of substrate library
matriptase = molecular target: T1, matriptase (Homo sapiens, UniProt Q9Y5Y6); experiment: HyCoSuL P4-P2 substrate specificity screening, matriptase; settings: for P2 Position Substrate Activity for matriptase (percent substrate cleavage/proteolysis): residue fixed at P2 position; for P3 Position Various Amino Acids Substrate Activity, matriptase (percent substrate cleavage/proteolysis): residue fixed at P3 position of substrate library; for P3 Position Substrate Activity for matriptase (percent substrate cleavage/proteolysis): residue fixed at P3 position; for P4 Position Various Amino Acids Substrate Activity, matriptase (percent substrate proteolysis/cleavage): residue fixed at P4 position of substrate library
T1 sequence (Q9Y5Y6 1-855): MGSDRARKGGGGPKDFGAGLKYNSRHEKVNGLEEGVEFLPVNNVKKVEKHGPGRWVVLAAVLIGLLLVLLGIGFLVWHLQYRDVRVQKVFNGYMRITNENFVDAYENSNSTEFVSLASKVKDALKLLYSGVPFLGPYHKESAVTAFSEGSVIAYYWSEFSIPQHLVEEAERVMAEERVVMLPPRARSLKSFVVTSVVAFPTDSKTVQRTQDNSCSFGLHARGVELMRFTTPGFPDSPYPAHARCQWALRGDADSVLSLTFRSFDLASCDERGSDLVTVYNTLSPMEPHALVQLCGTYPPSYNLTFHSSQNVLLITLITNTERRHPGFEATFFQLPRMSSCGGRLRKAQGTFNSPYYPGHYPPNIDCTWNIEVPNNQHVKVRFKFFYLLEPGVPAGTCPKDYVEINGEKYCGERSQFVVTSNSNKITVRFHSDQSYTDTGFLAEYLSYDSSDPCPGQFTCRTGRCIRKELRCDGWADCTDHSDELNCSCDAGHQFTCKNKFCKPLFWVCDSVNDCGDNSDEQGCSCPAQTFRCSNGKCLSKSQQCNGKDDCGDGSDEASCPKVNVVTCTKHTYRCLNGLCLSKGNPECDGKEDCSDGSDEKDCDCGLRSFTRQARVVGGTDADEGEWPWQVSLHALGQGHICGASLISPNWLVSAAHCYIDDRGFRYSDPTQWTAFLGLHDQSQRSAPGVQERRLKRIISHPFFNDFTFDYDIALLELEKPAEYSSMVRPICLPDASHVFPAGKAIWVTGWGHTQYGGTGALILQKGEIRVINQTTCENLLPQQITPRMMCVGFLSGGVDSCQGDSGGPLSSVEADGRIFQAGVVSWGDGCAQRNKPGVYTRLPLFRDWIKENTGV

hepsin = molecular target: T2, hepsin (Homo sapiens, UniProt P05981); experiment: HyCoSuL P4-P2 substrate specificity screening, hepsin; settings: for P2 Position Substrate Activity for hepsin (percent substrate cleavage/proteolysis): residue fixed at P2 position; for P3 Position Substrate Activity for hepsin (percent substrate cleavage/proteolysis): residue fixed at P3 position; for P3 Position Various Amino Acids Substrate Activity, hepsin (percent substrate cleavage/proteolysis): residue fixed at P3 position of substrate library; for P4 Position Various Amino Acids Substrate Activity, hepsin (percent substrate proteolysis/cleavage): residue fixed at P4 position of substrate library
T2 construct: purchased R&D Systems 4776-SE-010

HGFA = molecular target: T3, HGFA (Homo sapiens, UniProt Q04756); experiment: HyCoSuL P4-P2 substrate specificity screening, HGFA; settings: for P2 Position Substrate Activity for HGFA (percent substrate cleavage/proteolysis): residue fixed at P2 position; for P3 Position Substrate Activity for HGFA (percent substrate cleavage/proteolysis): residue fixed at P3 position; for P3 Position Various Amino Acids Substrate Activity, HGFA (percent substrate cleavage/proteolysis): residue fixed at P3 position of substrate library; for P4 Position Various Amino Acids Substrate Activity, HGFA (percent substrate proteolysis/cleavage): residue fixed at P4 position of substrate library
T3 sequence (Q04756 373-655): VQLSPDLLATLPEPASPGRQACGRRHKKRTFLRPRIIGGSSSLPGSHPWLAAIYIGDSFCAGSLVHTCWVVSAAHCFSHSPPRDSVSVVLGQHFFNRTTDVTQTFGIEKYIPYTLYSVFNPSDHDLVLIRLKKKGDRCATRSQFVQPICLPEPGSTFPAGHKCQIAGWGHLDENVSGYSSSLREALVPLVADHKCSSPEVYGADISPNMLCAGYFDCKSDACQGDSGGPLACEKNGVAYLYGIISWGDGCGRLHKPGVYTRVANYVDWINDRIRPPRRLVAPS

[1] = best recognized amino acid set to 100%
[2] = P1-Arg HyCoSuL, 100 μM, best recognized amino acid set to 100%
[3] = residue fixed at P4 position, P1-Arg HyCoSuL, 100 μM, best recognized amino acid set to 100%
[4] = residue fixed at P4 position of substrate library

T2 sequence (P05981 163-417 limits assumed): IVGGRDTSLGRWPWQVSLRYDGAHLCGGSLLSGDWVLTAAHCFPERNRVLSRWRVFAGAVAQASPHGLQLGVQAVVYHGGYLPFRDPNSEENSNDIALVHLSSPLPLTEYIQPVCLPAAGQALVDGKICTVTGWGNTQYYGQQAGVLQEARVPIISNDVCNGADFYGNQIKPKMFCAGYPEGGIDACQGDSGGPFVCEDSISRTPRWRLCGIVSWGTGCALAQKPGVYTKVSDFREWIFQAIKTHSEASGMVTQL
T2 sequence (P05981 1-162 partner limits assumed): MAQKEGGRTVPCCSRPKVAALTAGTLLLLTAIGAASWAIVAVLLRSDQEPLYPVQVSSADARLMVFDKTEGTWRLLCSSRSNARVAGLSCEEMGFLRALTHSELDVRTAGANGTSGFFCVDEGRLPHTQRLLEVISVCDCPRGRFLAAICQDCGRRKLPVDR
Sequence of TMPRSS2 (O15393 whole entry): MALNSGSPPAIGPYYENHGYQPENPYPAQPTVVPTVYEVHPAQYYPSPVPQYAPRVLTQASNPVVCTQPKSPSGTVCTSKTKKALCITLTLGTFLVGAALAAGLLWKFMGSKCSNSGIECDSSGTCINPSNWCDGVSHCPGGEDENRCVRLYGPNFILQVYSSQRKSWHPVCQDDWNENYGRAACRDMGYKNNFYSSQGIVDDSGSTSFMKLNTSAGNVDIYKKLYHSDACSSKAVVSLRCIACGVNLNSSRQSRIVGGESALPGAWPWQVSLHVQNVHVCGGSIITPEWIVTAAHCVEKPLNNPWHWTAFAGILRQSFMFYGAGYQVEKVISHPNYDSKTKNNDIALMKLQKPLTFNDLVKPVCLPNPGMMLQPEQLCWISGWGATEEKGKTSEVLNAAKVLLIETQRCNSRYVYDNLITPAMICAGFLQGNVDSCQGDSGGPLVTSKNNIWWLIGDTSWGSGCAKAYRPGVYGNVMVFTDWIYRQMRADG

Row | Substance | P2 Position Substrate Activity for TMPRSS2 (percent substrate cleavage/proteolysis) (TMPRSS2; [1]) [%] | P3 Position Substrate Activity for TMPRSS2 (percent substrate cleavage/proteolysis) (TMPRSS2; [1]) [%] | P4 Position Substrate Activity for TMPRSS2 (percent substrate cleavage/proteolysis) (TMPRSS2; residue fixed at P4 position of substrate library, best recognized amino acid set to 100%) [%] | P2 Position Substrate Activity for matriptase (percent substrate cleavage/proteolysis) (matriptase; [2]) [%] | P3 Position Various Amino Acids Substrate Activity, matriptase (percent substrate cleavage/proteolysis) (matriptase) [%] | P3 Position Substrate Activity for matriptase (percent substrate cleavage/proteolysis) (matriptase; [2]) [%] | P4 Position Various Amino Acids Substrate Activity, matriptase (percent substrate proteolysis/cleavage) (matriptase) [%] | P4 Position Substrate Activity for matriptase (percent substrate cleavage/proteolysis) (matriptase; [3]) [%] | P2 Position Substrate Activity for hepsin (percent substrate cleavage/proteolysis) (hepsin; [2]) [%] | P3 Position Substrate Activity for hepsin (percent substrate cleavage/proteolysis) (hepsin; [2]) [%] | P4 Position Substrate Activity for hepsin (percent substrate cleavage/proteolysis) (hepsin; [3]) [%] | P2 Position Substrate Activity for HGFA (percent substrate cleavage/proteolysis) (HGFA; [2]) [%] | P3 Position Substrate Activity for HGFA (percent substrate cleavage/proteolysis) (HGFA; [2]) [%] | P4 Position Substrate Activity for HGFA (percent substrate cleavage/proteolysis) (HGFA; [3]) [%] | P3 Position Various Amino Acids Substrate Activity, TMPRSS2 (percent substrate cleavage/proteolysis) (TMPRSS2) [%] | P4 Position Various Amino Acids Substrate Activity, TMPRSS2 (percent substrate proteolysis/cleavage) (TMPRSS2; [4]) [%] | P3 Position Various Amino Acids Substrate Activity, hepsin (percent substrate cleavage/proteolysis) (hepsin) [%] | P4 Position Various Amino Acids Substrate Activity, hepsin (percent substrate proteolysis/cleavage) (hepsin) [%] | P3 Position Various Amino Acids Substrate Activity, HGFA (percent substrate cleavage/proteolysis) (HGFA) [%] | P4 Position Various Amino Acids Substrate Activity, HGFA (percent substrate proteolysis/cleavage) (HGFA) [%]
1 | D-Arg | 0.00 | 0.00 | 24.43 | 0 | 8 | 7.82 | 18 | 17.66 | 0.00 | 66.08 | 44.37 | 0.00 | 29.10 | 23.20 |  |  |  |  |  | 
2 | L-Glu | 6.08 |  |  | 6 | 44 |  | 18 |  | 12.19 |  |  | 3.35 |  |  | 56.51 | 9.81 | 58.69 | 29.82 | 15.98 | 9.01
3 | L-Dab | 0.00 | 36.73 |  | 0 | 66 | 66.02 | 32 |  | 13.49 | 48.55 |  | 0.50 | 29.40 |  |  | 12.90 |  | 47.53 |  | 16.76
4 | D-Gln | 0.00 | 10.18 |  | 0 | 7 | 7.43 | 7 |  | 0.00 | 97.80 |  | 0.00 | 13.84 |  |  | 20.76 |  | 20.13 |  | 8.03
5 | D-His | 0.00 |  |  | 0 | 3 |  | 7 |  | 0.00 |  |  | 0.00 |  |  | 6.35 | 24.51 | 40.09 | 19.33 | 11.09 | 7.79
6 | L-Nva | 13.88 |  |  | 11 | 25 |  | 30 |  | 58.40 |  |  | 39.80 |  |  | 38.62 | 54.45 | 25.85 | 41.99 | 17.60 | 11.78
7 | L-Gln | 6.03 |  |  | 1 | 18 |  | 0 |  | 0.00 |  |  | 0.89 |  |  | 52.35 | 26.44 | 16.72 | 0.76 | 3.47 | 1.96
